The results in this text go back to article PMC7751394, “Succinic acid inhibits the activity of cytochrome P450 (CYP450) enzymes” (Pharmaceutical Biology, 2020).

In general, IC50 refers to the concentration that gives 50% inhibition. Low values mean higher potency, high ones lower potency. Broadly, the Ki is the dissociation constant of the complex between target and ligand, obtained from inhibition or displacement.

Each structure is given as a SMILES string.

Data set [1] concerns the target T1, CYP3A4 (Homo sapiens, UniProt P08684). Here is the method: (§1) To determine whether succinic acid could inhibit the activity of CYP3A4, 2D6, and 2C9 in a time-dependent manner, succinic acid (20 μM) was pre-incubated with HLMs (1 mg/mL) in the presence of an NADPH-generating system for 30 min at 37 °C. After incubation, an aliquot (20 μL) was transferred to another incubation tube (final volume 200 μL) containing an NADPH-generating system and probe substrates whose final concentrations were approximate to Km. Then, further incubations were performed to measure the residual activity. After being incubated for 0, 5, 10, 15, and 30 min, the reactions were terminated by adding a 100 μL acetonitrile internal standard mix and then placed on ice; the corresponding metabolites were determined by HPLC.
To determine the KI and Kinact values for the inactivation of CYP3A4, the incubations were conducted using higher probe substrate concentrations (approximately 4-fold Km values) and various concentrations of succinic acid (0–50 μM) after different preincubation times (0–30 min), with a two-step incubation scheme, as described above.

Data set [2] addresses T2, CYP2D6 (Homo sapiens, UniProt P10635). To be noted: succinic acid 20 μM, 0–30 min. The procedure:
as §1

The target in data set [3] is T3, CYP2C9 (Homo sapiens, UniProt P11712). Particulars: succinic acid 20 μM, 0–30 min. Here is the method: as §1
Data set [4] addresses T2, CYP2D6. In words: biochemical. The procedure:
(§2) All incubations were performed in triplicate, and the mean values were utilized. The typical incubation systems contained 100 mM potassium phosphate buffer (pH 7.4), NADPH generating system (1 mM NADP^+, 10 mM glucose-6-phosphate, 1 U/mL of glucose-6-phosphate dehydrogenase, and 4 mM MgCl2), the appropriate concentration of HLMs, a corresponding probe substrate and hispidulin (or positive inhibitor for different probe reactions) in a final volume of 200 μL.
(§3) The concentration of succinic acid was 100 μM, and the positive inhibitor concentrations were as follows: 10 μM furafylline for CYP1A2, 1 μM ketoconazole for CYP3A4, 10 μM tranylcypromine for CYP2A6, 50 μM clomethiazole for CYP2E1, 10 μM quinidine for CYP2D6, 10 μM sulfaphenazole for CYP2C9, 50 μM tranylcypromine for CYP2C19, 5 μM montelukast for CYP2C8. Probe substrates, positive inhibitors (except for dextromethorphan and quinidine, which were dissolved in water), and succinic acid were dissolved in methanol, with a final concentration of 1% (v/v), and 1% neat methanol was added to the incubations without inhibitor. There was a 3 min preincubation period (at 37 °C) before the reaction was initiated by adding an NADPH-generating system. The reaction was terminated by adding a 100 μL acetonitrile (10% trichloroacetic acid for CYP2A6) internal standard mix, and the solution was placed on ice. The mixture was centrifuged at 12,000 rpm for 10 min, and an aliquot (50 μL) of supernatant was transferred for HPLC analysis. The instrument used in this study was Agilent 1260 series instrument with DAD and FLD detector, and the quantitative assay for the corresponding metabolites was performed as previously reported (Lang et al. [2017]; Zhang et al. [2017]).
(§4) Succinic acid (100 μM) was used to initially screen for its direct inhibitory effects towards different human CYP isoforms. […] Ki values were obtained by incubating various concentrations of different probe substrates (20–100 μM testosterone, 10–50 μM dextromethorphan, 5–20 μM diclofenac) in the presence of 0–50 μM succinic acid.
(§5) The enzyme kinetic parameters for the probe reaction were estimated from the best fit line, using least-squares linear regression of the inverse substrate concentration versus the inverse velocity (Lineweaver-Burk plots), and the mean values were used to calculate Vmax and Km. Inhibition data from the experiments that were conducted using multiple compound concentrations were represented by Dixon plots, and inhibition constant (Ki) values were calculated using non-linear regression according to the following equation: v=(VmaxS)/(Km(1+I/Ki)+S), where I is the concentration of the compound, Ki is the inhibition constant, S is the concentration of the substrate, and Km is the substrate concentration at half the maximum velocity (Vmax) of the reaction. The mechanism of the inhibition was inspected using the Lineweaver-Burk plots and the enzyme inhibition models. The data comparison was performed using Student’s t-test and performed using IBM SPSS statistics 20 (SPSS Inc.).

Data set [5] deals with T1, CYP3A4. The experiment in a line: biochemical. Here is the method:
as §2, §3, §4, §5

Data set [6] addresses T3, CYP2C9. In words: biochemical. The procedure: as §2, §3, §4, §5

T2 sequence (P10635 whole entry): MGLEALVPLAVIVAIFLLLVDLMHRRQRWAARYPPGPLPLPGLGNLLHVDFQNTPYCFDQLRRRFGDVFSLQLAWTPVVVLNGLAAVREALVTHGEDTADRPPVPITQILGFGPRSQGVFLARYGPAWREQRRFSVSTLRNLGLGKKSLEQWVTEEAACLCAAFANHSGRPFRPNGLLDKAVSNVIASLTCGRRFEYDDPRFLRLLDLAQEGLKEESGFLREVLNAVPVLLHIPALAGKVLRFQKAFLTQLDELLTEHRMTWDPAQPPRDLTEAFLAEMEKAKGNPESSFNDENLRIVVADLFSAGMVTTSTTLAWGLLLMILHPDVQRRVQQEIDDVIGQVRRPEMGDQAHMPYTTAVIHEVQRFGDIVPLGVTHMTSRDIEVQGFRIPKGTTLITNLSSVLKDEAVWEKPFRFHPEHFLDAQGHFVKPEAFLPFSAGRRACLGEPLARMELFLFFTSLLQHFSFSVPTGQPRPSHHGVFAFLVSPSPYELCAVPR
T1 sequence (P08684 whole entry): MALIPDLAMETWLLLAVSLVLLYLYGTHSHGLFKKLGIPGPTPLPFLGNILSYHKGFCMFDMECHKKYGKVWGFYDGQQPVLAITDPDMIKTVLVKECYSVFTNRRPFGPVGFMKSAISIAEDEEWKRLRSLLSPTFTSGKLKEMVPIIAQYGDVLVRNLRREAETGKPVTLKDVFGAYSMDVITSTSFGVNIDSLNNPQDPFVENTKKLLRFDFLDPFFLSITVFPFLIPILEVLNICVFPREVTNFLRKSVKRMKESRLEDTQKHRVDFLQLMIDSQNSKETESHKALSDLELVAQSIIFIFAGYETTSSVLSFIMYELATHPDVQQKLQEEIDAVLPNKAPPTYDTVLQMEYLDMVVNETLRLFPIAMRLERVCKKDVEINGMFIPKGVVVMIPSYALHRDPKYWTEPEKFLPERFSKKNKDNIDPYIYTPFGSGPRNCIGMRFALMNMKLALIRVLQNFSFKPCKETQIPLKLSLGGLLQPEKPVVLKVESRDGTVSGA
T3 sequence (P11712 whole entry): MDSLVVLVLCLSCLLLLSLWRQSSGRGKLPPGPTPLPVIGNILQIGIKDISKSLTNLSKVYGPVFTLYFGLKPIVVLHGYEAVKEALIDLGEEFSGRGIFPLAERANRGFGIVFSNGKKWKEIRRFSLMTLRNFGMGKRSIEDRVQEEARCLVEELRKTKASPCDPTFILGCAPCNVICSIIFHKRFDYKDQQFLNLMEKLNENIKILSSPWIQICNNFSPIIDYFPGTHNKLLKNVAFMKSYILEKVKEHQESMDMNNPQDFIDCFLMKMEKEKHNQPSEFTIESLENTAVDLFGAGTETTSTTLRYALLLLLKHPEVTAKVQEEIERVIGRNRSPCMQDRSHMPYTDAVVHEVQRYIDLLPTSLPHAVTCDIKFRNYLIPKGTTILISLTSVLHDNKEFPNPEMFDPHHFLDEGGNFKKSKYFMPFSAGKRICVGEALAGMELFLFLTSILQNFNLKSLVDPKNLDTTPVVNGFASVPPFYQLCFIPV

Turning to `O=C(O)CCC(=O)O` [succinic acid, Succinic acid], the “time dependence of CYP3A4 inhibition” value in data set [1] (succinic acid 20 μM, 0–30 min) was “time-dependent”. In addition, the “activity of CYP3A4 (decreased to) after incubating” value in data set [1] (succinic acid 20 μM, 30 min incubation, HLMs with NADPH) is reported as 26.65%. Further, the “CYP3A4 inactivated by succinic acid” value in data set [1] (suggested from Kinact) is listed as “about 5.1%”. Also, in data set [2], the “effect of incubation time on CYP2D6 activity” value is “not affected by the incubation time”. In data set [3], the “effect of incubation time on CYP2C9 activity” value is “not affected by the incubation time”. Moreover, the 50% inhibitory concentration (IC50) was found to be 14.5 µM in data set [4], 12.8 µM in data set [5] and 19.6 µM in data set [6]. The Ki came out at 7.4 µM in data set [4], 6.18 µM in data set [5] and 9.48 µM in data set [6]. In addition, the “inhibition model CYP2D6 (Lineweaver-Burk plots)” value in data set [4] (microsomes) is given as “competitive”. Besides, the “inhibition model CYP3A4 (Lineweaver-Burk plots)” value in data set [5] (pooled HLM) is listed as “non-competitive”. Moreover, the “inhibition model CYP2C9 (Lineweaver-Burk plots)” value in data set [6] (pooled HLM) is “competitive”.
